The NIST ThermoML archive (doi:10.1021/je900530f)
± gives the expanded uncertainty stated by the source.

Conditions: Liquid

## CCC(C)(C)O [2-methylbutan-2-ol]
313.15 K
  vapor or sublimation pressure: 5.69 ± 0.24 kPa
323.15 K
  vapor or sublimation pressure: 10.41 ± 0.32 kPa
333.15 K
  vapor or sublimation pressure: 17.87 ± 0.43 kPa
338.15 K
  vapor or sublimation pressure: 22.87 ± 0.51 kPa

## CCC(C)O (stereo not given) [butan-2-ol]
313.15 K
  vapor or sublimation pressure: 5.83 ± 0.18 kPa
323.15 K
  vapor or sublimation pressure: 10.48 ± 0.24 kPa
333.15 K
  vapor or sublimation pressure: 18.2 ± 0.33 kPa

## CCCCCC [hexane]
313.15 K
  vapor or sublimation pressure: 37.04 ± 0.55 kPa
323.15 K
  vapor or sublimation pressure: 53.91 ± 0.74 kPa
333.15 K
  vapor or sublimation pressure: 76.32 ± 1 kPa
338.15 K
  vapor or sublimation pressure: 89.92 ± 1.2 kPa

## CCCC(C)O (stereo not given) [pentan-2-ol]
313.15 K
  vapor or sublimation pressure: 2.13 ± 0.14 kPa
323.15 K
  vapor or sublimation pressure: 4.16 ± 0.16 kPa
333.15 K
  vapor or sublimation pressure: 7.57 ± 0.2 kPa
338.15 K
  vapor or sublimation pressure: 9.99 ± 0.23 kPa
